Test results as given in paper PMC11395566, “Novel Copper (II) Complexes with Fluorine-Containing Reduced Schiff Base Ligands Showing Marked Cytotoxicity in the HepG2 Cancer Cell Line” (International Journal of Molecular Sciences, 2024).
Values joined by “and” are separate entries in the source; they are usually repeats but may differ in a detail not shown here. Equal values may be shown once.

How the values were obtained:
[1] = system: HepG2 hepatocellular carcinoma cells; assay: Cytotoxicity, MTT assay; type: cell-based, human; settings: for IC50: HepG2, 24 h incubation, MTT
Protocol: The cytotoxic activity of the compounds L11–L14 and CuL11–CuL14 was evaluated in hepatocellular carcinoma HepG2 cells using the MTT assay. This colorimetric assay measures the reduction of the yellow tetrazolium salt 3-(4,5-dimethylthiazol-2-yl)-2,5-diphenyltetrazolium bromide (MTT) to purple formazan crystals by metabolically active cells.
HepG2 cells were seeded in 96-well plates at 70% confluency and pre-cultivated for 24 h before experiment in RPMI 1640 medium (Biosera, Cholet, France) with 10% fetal bovine serum, 1000 U·mL^−1 penicillin, and […] streptomycin, at 37 °C, 5% CO2 (maximum passage number 23).
HepG2 cells were incubated for 24 h with different concentrations (2–250 µM) of the tested compounds. The stock solutions of the compounds were freshly prepared in DMSO (Sigma-Aldrich, Burlington, MA, USA). Cells treated only with the RPMI 1640 medium served as a negative control, medium and DMSO served as a solvent control, and cells treated with cisplatin solution (Accord Healthcare, Harrow, UK) (2–250 µM) served as a positive control. After treatment, HepG2 cells were incubated for 4 h with MTT (Sigma Aldrich) solution (1mg/mL in PBS and complete RPMI medium). Then, the MTT solution was removed, and the formazan crystals were dissolved in DMSO for 30 min. The absorbance intensity was measured using an Epoch Spectrophotometer (BioTek, Winooski, VT, USA) at 570 nm. The experiments were performed in triplicate and cell cytotoxicity was expressed as a percentage relative to the untreated cells. Unexposed cells were used as a control and considered as having 100% cell viability. The viability of cells was calculated using the following formula:Viable cells (%) = A (treated cells)/A (control cells) × 100
The IC50 values were calculated using a four-parameter logistic regression model.

C. albicans CCM 8186 = assay: Antimicrobial activity, broth dilution method; type: cell-based, Candida albicans; settings: 24 h, 24 °C
Protocol: (§1) The antimicrobial activities of the synthesized copper (II) complexes were evaluated against E. coli CNCTC 377/79 (Gram-negative bacterium), S. aureus CNCTC Mau 29/58 (Gram-positive bacterium), and the yeast C. albicans CCM 8186. Bacterial strains were obtained from the Czech National Collection of Type Cultures (National Institute of Public Health, Prague, Czech Republic) and the yeast was purchased from the Czech Collection of Microorganisms (Masaryk University, Brno, Czech Republic). Bacteria were grown aerobically in nutrient broth (IMUNA PHARM, Šarišské Michaľany, Slovakia) and the yeast in BD Difco Sabouraud dextrose broth (Becton, Dickinson and Company, Franklin Lakes, NJ, USA) for 18 h at 37 °C or 48 h at 24 °C, respectively. Cultures were then maintained at 4 °C on appropriate solid medium: Endo agar (Oxoid Ltd., Basingstoke, UK) for E. coli, blood agar (Biomark Laboratories, Pune, India) for S. aureus, and BD Sabouraud dextrose agar (Becton, Dickinson and Company, Franklin Lakes, NJ, USA) for C. albicans. Working cultures were prepared by the incubation of a single colony of each microorganism in NB (bacteria) or SDB (yeast) for 18 h at 37 °C or 48 h at 24 °C, respectively. A microbial suspension was prepared in saline solution (0.85% NaCl) according to McFarland standard No 0.5 using a Lambda 35 UV/VIS Spectrophotometer (PerkinElmer Inc., Shelton, CT, USA) to obtain a turbidity (concentration) of ca 1.5 × 10^8 cfu/cm^3. After the dilution in the appropriate liquid medium (NB for bacteria and SDB for yeast), a working turbidity of 1.5 × 10^7 cfu/cm^3 was prepared.
(§2) Antimicrobial activity was determined using the broth dilution method as described in [7]. Stock solutions with initial concentrations of approx. 45 mM for ligands and 27 mM for copper complexes were prepared in DMSO immediately before use. For comparison, ciprofloxacine was used as a standard compound. Working test ligands and copper complexes were prepared by the two-fold serial dilution of stock solutions in sterile doubly concentrated NB or SDB to a final volume 100 mm^3 within the 96-well microplates. Freshly prepared inoculum (5 mm^3) of the tested microorganism was added to each appropriate well (bacteria into the plates with NB, C. albicans into the plates with SDB). The final turbidity of each microorganism in each well was ca 7.5 × 10^5 cfu/cm^3. […] Each concentration was assayed in triplicate. […]

[2] = system: S. aureus CNCTC Mau 29/58; assay: Antimicrobial activity, broth dilution method; type: cell-based, Staphylococcus aureus; settings: 24 h, 37 °C
Protocol: as §1, §2

E. coli CNCTC 377/79 = assay: Antimicrobial activity, broth dilution method; type: cell-based, Escherichia coli; settings: 24 h, 37 °C
Protocol: as §1, §2

[3] = system: T1, bovine serum albumin (BSA); assay: Interaction with BSA by quenching of tryptophane fluorescence; type: binding; settings: for BSA binding constant K: Scatchard equation; for BSA fluorescence quenching rate constant kq / BSA fluorescence dynamic quenching constant Ksv: Stern–Volmer equation, 30 µM BSA in citrate buffer; for BSA fluorescence dynamic quenching constant Ksv: emission 336 nm
T1 construct: Bovine serum albumin (BSA) was chosen over human serum albumin (HSA) as the model protein target; purchased Sigma-Aldrich
Protocol: The interaction of all prepared copper complexes with BSA was studied by quenching the BSA fluorescence. BSA was dissolved in citrate buffer at the initial concentration of 30 µM. The quenching of the emission intensity of BSA tryptophane residues at 336 nm was monitored using the tested complexes (1 mM solution in DMSO) as quenchers with gradually increasing concentrations. The fluorescence emission spectra were recorded in the range of 300–420 nm. The wavelength of the excitation radiation was 280 nm. Measured data were used to study the interaction of a quencher with serum albumins using the Stern–Volmer (Equation (1)) and Scatchard (Equation (2)) equations, obtaining the Stern–Volmer constant KSV (M^−1), BSA quenching constant kq (M^−1 s^−1), binding constants KBSA (M^−1), and values of the number of binding sites n on albumin [45]. (1) I0/I=1+kqτ0 [Q]=1+KSV [Q] (2) ΔI/I0/[Q]=nKBSA−KBSAΔI/I0 where I0 = initial tryptophane fluorescence intensity of BSA, I = tryptophane fluorescence intensity of BSA after the addition of the complex, kq = quenching rate constant of BSA, KSV = dynamic quenching constant, τ0 = the average lifetime of BSA without the quencher, and [Q] = concentration of the quencher. KBSA is the bovine serum albumin binding constant and n is the number of binding sides per albumin.

calf thymus DNA (ct-DNA) = assay: Quenching of the fluorescence of EB-DNA adduct (ethidium bromide displacement); type: binding; settings: for EB-DNA dynamic quenching constant Ksv / EB-DNA fluorescence quenching rate constant kq: Stern–Volmer equation; for ΔI/I0, quenching of EB-DNA fluorescence: complex 0 to 2 × 10^−4 M
Protocol: A stock solution of ct-DNA was prepared by dissolving 6 mg of ct-DNA in 5 mL of citrate buffer. The ability of the compounds to displace EB from its EB-DNA conjugate was investigated by fluorescence emission spectroscopy. The EB-DNA conjugate was prepared by adding 20 µM EB and 26 µM ct-DNA to citrate buffer. The measurements were performed by the gradual addition of the complex solution in DMSO (1 mM) to the EB-DNA conjugate solution and observing the changes in the fluorescence spectra. The spectra were recorded in the range of 550–700 nm and the excitation wavelength was set to 515 nm. The Stern–Volmer constant KSV was used to evaluate the quenching efficiency of the complexes according to the Stern–Volmer equation (Equation (1)).

Jack bean urease = Jack bean urease (Canavalia ensiformis, UniProt P07374); settings: read-out: Urease inhibition IC50 ± SD, 15 min pre-incubation
Chain of Jack bean urease (P07374 whole entry, looked up): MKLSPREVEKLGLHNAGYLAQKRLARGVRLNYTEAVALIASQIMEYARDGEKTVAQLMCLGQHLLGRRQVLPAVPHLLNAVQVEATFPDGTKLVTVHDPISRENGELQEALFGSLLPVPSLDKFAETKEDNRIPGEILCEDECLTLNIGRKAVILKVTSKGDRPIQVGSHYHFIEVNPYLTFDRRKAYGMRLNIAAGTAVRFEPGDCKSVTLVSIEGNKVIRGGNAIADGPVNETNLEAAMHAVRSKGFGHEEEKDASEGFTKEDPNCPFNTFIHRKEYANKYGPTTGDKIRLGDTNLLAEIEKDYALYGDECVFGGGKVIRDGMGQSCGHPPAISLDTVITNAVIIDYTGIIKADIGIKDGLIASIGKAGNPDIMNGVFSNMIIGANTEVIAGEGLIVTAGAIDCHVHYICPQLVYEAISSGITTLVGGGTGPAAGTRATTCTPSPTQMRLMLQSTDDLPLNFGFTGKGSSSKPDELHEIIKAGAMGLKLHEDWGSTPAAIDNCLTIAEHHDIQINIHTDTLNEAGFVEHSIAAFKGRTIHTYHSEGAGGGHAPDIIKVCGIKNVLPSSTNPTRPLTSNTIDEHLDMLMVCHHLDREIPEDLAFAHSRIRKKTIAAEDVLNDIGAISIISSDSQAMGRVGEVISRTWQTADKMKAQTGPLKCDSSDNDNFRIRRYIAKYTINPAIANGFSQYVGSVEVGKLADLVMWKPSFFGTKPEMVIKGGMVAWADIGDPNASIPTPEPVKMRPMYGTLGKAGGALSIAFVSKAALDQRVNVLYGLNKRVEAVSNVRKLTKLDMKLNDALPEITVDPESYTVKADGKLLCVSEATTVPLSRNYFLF
Protocol: The urease inhibition activity of complexes was determined using the modified method reported by [48]. The assay mixture, containing 75 μL of Jack bean urease and 75 μL of the tested compounds with various concentrations dissolved in DMSO, was pre-incubated for 15 min on a 96-well assay. Afterwards, 75 μL of phosphate buffer at pH 6.8 (containing phenol red 0.18 mM) and urea (400 mM) were added and incubated at room temperature. We used microplate reader (560 nm) to measure the reaction time required for enough ammonium carbonate to form to raise the pH of the phosphate buffer from 6.8 to 7.7. The end-point of the reaction was determined by the color change of the phenol red indicator. Acetohydroxamic acid was used as a reference.

Dichloro[(±)-trans-N,N′-bis-(3,5-difluorobenzyl)-cyclohexane-1,2-diamine]copper (II) [Cu-L13]
IC50 [1]: 64.4 ± 3.2 µM | MIC C. albicans (C. albicans CCM 8186): 1698.1 µM | MIC S. aureus [2]: 424.5 µM | MIC E. coli (E. coli CNCTC 377/79): 212.3 µM | BSA binding constant K [3]: 4.70 (±0.32) × 10^3 M^−1 | BSA fluorescence quenching rate constant kq [3]: 8.46 × 10^11 M^−1s^−1 and 8.46 (±0.26) × 10^11 M^−1s^−1 | BSA fluorescence dynamic quenching constant Ksv [3]: 8.46 (±0.26) × 10^3 M^−1 | EB-DNA dynamic quenching constant Ksv (calf thymus DNA (ct-DNA)): 3.51 (±0.08) M^−1 × 10^3 | EB-DNA fluorescence quenching rate constant kq (calf thymus DNA (ct-DNA)): 1.53 (±0.03) M^−1 s^−1 × 10^11 | ΔI/I0, quenching of EB-DNA fluorescence (calf thymus DNA (ct-DNA)): 60.3%

Dichloro[(±)-trans-N,N′-bis-(4-trifluoromethylbenzyl)-cyclohexane-1,2-diamine]copper (II) [Cu-L12]
IC50 [1]: 28.7 ± 2 µM | cell survival ([1]; HepG2, at a 50 µM concentration): 9.40% | MIC C. albicans (C. albicans CCM 8186): 855.3 µM | MIC S. aureus [2]: 26.7 µM | MIC E. coli (E. coli CNCTC 377/79): 26.7 µM | BSA binding constant K [3]: 8.59 (±0.64) × 10^3 M^−1 | BSA fluorescence quenching rate constant kq [3]: 5.62 (±0.20) × 10^11 M^−1s^−1 | BSA fluorescence dynamic quenching constant Ksv [3]: 5.62 (±0.20) × 10^3 M^−1 | EB-DNA dynamic quenching constant Ksv (calf thymus DNA (ct-DNA)): 3.58 (±0.09) M^−1 × 10^3 | EB-DNA fluorescence quenching rate constant kq (calf thymus DNA (ct-DNA)): 1.56 (±0.04) M^−1 s^−1 × 10^11 | ΔI/I0, quenching of EB-DNA fluorescence (calf thymus DNA (ct-DNA)): 59.7%

CC(=O)NO [acetohydroxamic acid]
IC50 (Jack bean urease): 185 µM

N.N.[Cl][Pt][Cl] [cisplatin, reference compound]
IC50 [1]: 337 ± 6.7 µM

Dichloro[(±)-trans-N,N′-bis-(4-fluorobenzyl)-cyclohexane-1,2-diamine]copper (II) [Cu-L11]
IC50 [1]: 61.3 ± 3.4 µM | MIC C. albicans (C. albicans CCM 8186): 1738.1 µM | MIC S. aureus [2]: 217.3 µM | MIC E. coli (E. coli CNCTC 377/79): 217.3 µM | BSA binding constant K [3]: 5.99 (±0.44) × 10^3 M^−1 | BSA fluorescence quenching rate constant kq [3]: 3.88e+11 M⁻¹ s⁻¹ | BSA fluorescence dynamic quenching constant Ksv [3]: 3.90 (±0.08) × 10^3 M^−1 | EB-DNA fluorescence quenching constant (kq) (calf thymus DNA (ct-DNA)): 1.48e+11 M⁻¹ s⁻¹ | EB-DNA dynamic quenching constant Ksv (calf thymus DNA (ct-DNA)): 3.40 (±0.08) M^−1 × 10^3 | EB-DNA fluorescence quenching rate constant kq (calf thymus DNA (ct-DNA)): 1.48 (±0.04) M^−1 s^−1 × 10^11 | ΔI/I0, quenching of EB-DNA fluorescence (calf thymus DNA (ct-DNA)): 61.3%

Dichloro[(±)-trans-N,N′-bis-(3,5-bis-trifluoromethylbenzyl)-cyclohexane-1,2-diamine]copper (II) [Cu-L14]
IC50 [1]: 189 ± 7.1 µM | MIC C. albicans (C. albicans CCM 8186): 1705.6 µM | MIC S. aureus [2]: 213.2 µM | MIC E. coli (E. coli CNCTC 377/79): 213.2 µM | BSA binding constant K [3]: 5.13 (±0.50) × 10^3 M^−1 | BSA fluorescence quenching rate constant kq [3]: 6.39 (±0.19) × 10^11 M^−1s^−1 | BSA fluorescence dynamic quenching constant Ksv [3]: 6.39 (±0.19) × 10^3 M^−1 | EB-DNA dynamic quenching constant Ksv (calf thymus DNA (ct-DNA)): 3.50 (±0.09) M^−1 × 10^3 | EB-DNA fluorescence quenching rate constant kq (calf thymus DNA (ct-DNA)): 1.52 (±0.04) M^−1 s^−1 × 10^11 | ΔI/I0, quenching of EB-DNA fluorescence (calf thymus DNA (ct-DNA)): 60.7%
